Article PMC4418665, “Cyclization of the Urokinase Receptor-Derived Ser-Arg-Ser-Arg-Tyr Peptide Generates a Potent Inhibitor of Trans-Endothelial Migration of Monocytes” (PLoS ONE, 2015)
Peptide text beside a SMILES is read from it.

Assays:
[1] = target: T1, FPR1 (Homo sapiens, UniProt P21462); assay: Ligand binding assay, competition with FITC-fMLF at 4°C, RBL-2H3/ETFR cells; set-up: expressed in transfected cells; settings: 100 nM peptide pre-incubated 60 min at 4°C, then 10 nM FITC-fMLF 60 min at 4°C; cell-associated fluorescence; triplicates
T1 sequence (P21462 1-350): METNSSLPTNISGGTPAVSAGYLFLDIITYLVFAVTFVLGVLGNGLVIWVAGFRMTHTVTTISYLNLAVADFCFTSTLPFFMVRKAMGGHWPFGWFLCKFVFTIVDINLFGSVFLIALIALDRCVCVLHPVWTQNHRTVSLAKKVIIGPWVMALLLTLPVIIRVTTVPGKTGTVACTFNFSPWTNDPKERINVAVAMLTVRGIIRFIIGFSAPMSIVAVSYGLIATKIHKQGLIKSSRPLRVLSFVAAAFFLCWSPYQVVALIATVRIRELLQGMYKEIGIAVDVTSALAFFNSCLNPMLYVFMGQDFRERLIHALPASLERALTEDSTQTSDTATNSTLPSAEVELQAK
Procedure: (§1) We have previously documented that SRSRY competes with the bacterial-derived N-formyl-methionyl-leucyl-phenylalanine peptide (fMLF) for binding to FPR type 1 (FPR1) and that both SRSRY and fMLF promote cell migration by triggering FPR1 internalization. […] Quantification of cell-associated fluorescence was assessed by reading cell lysates with a fluorescence plate reader. RBL-2H3 cells lack FPR1, thus they display very low uptake that was not saturable with unlabeled fMLF (Fig 2A). […] To evaluate the effect of [SRSRY] on agonist-dependent FPR1 internalization, binding experiments were performed at 37°C. […] Thus, we assessed whether [SRSRY] elicits effects on fMLF-directed cell migration. RBL-2H3/ETFR cell migration toward 10 nM fMLF was monitored in real-time for 4 hours as Cell Index changes due to the adhesion of migrating cells to microelectrodes using the xCELLigence RTCA technology as previously described. […]
(§2) Fig 2 Both linear and cyclic SRSRY peptides bind to FPR1. […] Fluorimetric measurement of cell-associated fluorescence was assed using 485 nm excitation and 535 nm emission filters. Data are expressed as a percentage of the fluorescence associated to RBL-2H3 cells exposed to FITC-fMLF alone (CTL = 100%) and represent a mean ± SD from triplicates. *Statistical significance (t-test) against None with p<0.001. […] Cell migration of RBL-2H3/ETFR cells monitored by the xCELLigence system. […]

[2] = target: T1, FPR1; assay: Agonist-dependent FPR1 internalization at 37°C, fluorescence microscopy, RBL-2H3/ETFR cells; format: cell-based; set-up: expressed in transfected cells; settings: 100 nM peptide 30 min at 37°C, then 10 nM FITC-fMLF 30 min at 37°C
Procedure: as §1, §2

Structure (SMILES) | binding of FITC-fMLF to RBL-2H3/ETFR cells [1] | agonist-dependent FPR1 internalization in RBL-2H3/ETFR cells [2]
N=C(N)NCCC[C@@H]1NC(=O)[C@H](CO)NC(=O)[C@H](Cc2ccc(O)cc2)NC(=O)[C@H](CCCNC(=N)N)NC(=O)[C@H](CO)NC1=O [[SRSRY], [Ser-Arg-Ser-Arg-Tyr]] (cyclo(RSRYS)) | inhibits binding of fluorescent agonist to RBL-2H3/ETFR cells to a similar extent as compared to fMLF or SRSRY | prevented agonist-dependent FPR1 internalization
N=C(N)NCCC[C@H](NC(=O)[C@H](CO)NC(=O)[C@H](CCCNC(=N)N)NC(=O)[C@@H](N)CO)C(=O)N[C@@H](Cc1ccc(O)cc1)C(N)=O [SRSRY, H-Ser-Arg-Ser-Arg-Tyr-NH2] (H-SRSRY-NH2) | reduced to the basal level | prevented
